Data as given in patent US20220184083A1, “USE OF AN AGENT CAPABLE OF INHIBITING THE ACTIVATION OF MAIT CELLS FOR THE TREATMENT OF OBESITY AND OBESITY-RELATED DISORDERS” (INSERM (INSTITUT NATIONAL DE LA SANTÉ ET DE LA RECHERCH …, priority 2019, published 2022).

Assays:
Format in all cases: in vivo
Vαl9^+/− mice fed HFD = assay: ITT, OGTT and weight gain in Vαl9+/− mice on high fat diet treated with Ac-6-FP
Description: FIG. 2: Ac-6-FP treatment during HFD improved metabolic parameters. Vαl9^+/− mice fed during 6 weeks of HFD were then giving water containing 50 nm/ml of Ac-6-FP (Acetyl-6-formylpterin) (n=8) or PBS (n=7) for 8 weeks and IP injected, twice a week, 50 nm of Ac-6-FP or PBS. (A) ITT and OGTT in Vαl9^+/− Ac-6-FP-treated mice and Vαl9^+/− control mice. (B) Percentage of weight gain of Ac-6-FP-treated Vαl9^+/− mice and Vαl9^+/− control mice.

MAIT cells = assay: Intracellular staining of MAIT cells for IL-17A in ileum and visceral adipose tissue; conditions: Vα19+/− mice, Ac-6-FP treated vs control (PBS)
Description: FIG. 3: Intra cellular staining of MAIT cells for IL-17A. Frequency of IL-17A positive MAIT cells in ileum and visceral adipose tissue from Vαl9+/− control (PBS) and Vαl9+/− Ac-6-FP treated mice.

[1] = system: visceral adipose tissue macrophages; assay: Frequency of M1 and M2 macrophages in visceral adipose tissue; conditions: Vαl9+/− mice, treated vs non-treated
Description: FIG. 4: Frequency of MI-macrophages (CD206−CD11c+) and M2-macrophages (CD206+CD11c−) among total macrophages and M1/M2 ratio in visceral adipose tissue from Vαl9+/− Ac-6-FP treated mice and their controls.

MR1−/− mice = assay: ITT and OGTT at 12 weeks of HFD in MR1−/− mice treated with Ac-6-FP; conditions: Ac-6-FP treated vs controls
Description: FIG. 5: Insulin Tolerance Test (ITT) and Oral Glucose Tolerance Test (OGTT) at 12 weeks of High Fat Diet (HFD) in MR1−/− Ac-6-FP treated mice and their respective controls.

`CC(=O)Nc1nc2ncc(C=O)nc2c(=O)[nH]1` [Ac-6-FP, acetyl-6-formylpterin] was tested. Which insulin sensitivity (Vαl9^+/− mice fed HFD; Ac-6-FP treatment during high fat diet (HFD), obese mice) did it give?
The insulin sensitivity was “improved”.

What about the “metabolic parameters (ITT, OGTT, percentage of weight gain)” value (Vαl9^+/− mice fed HFD; Vαl9+/− mice, 6 weeks HFD, then water containing 50 nm/ml Ac-6-FP for 8 weeks plus IP 50 nm twice a week, vs PBS) of the same compound?
The value was “improved”.

And the “production of IL-17A by MAIT cells” value (MAIT cells; ileum)?
Its value is “decreased production”.

And the “production of IL-17A by MAIT cells” value (MAIT cells; visceral adipose tissue)?
The value was “decreased production”.

What about the “frequency of M1-like macrophages (pro-inflammatory, CD206−CD11c+)” value [1] of the same compound?
Its value is “decreased frequency”.

And the “frequency of M2-like macrophages (anti-inflammatory, CD206+CD11c−)” value [1]?
Its value is “increased frequency”.

What about the “glucose tolerance (OGTT)” value (MR1−/− mice) of the same compound?
Its value is “did not have any effect”.

And the “insulin sensitivity (ITT)” value (MR1−/− mice)?
Its value is “did not have any effect”.
